Laboratory results as given in publication PMC4595834, “Comparison of carbon-sulfur and carbon-amine bond in therapeutic drug: 4β-S-aromatic heterocyclic podophyllum derivatives display antitumor activity” (Scientific Reports, 2015).
Read-outs that look alike come from different tables or passages of the source.

How the values were obtained:
[1] = system: HeLa cells; test: MTT cytotoxicity assay, HeLa; assay type: cell-based, human; conditions: Homo sapiens, HeLa; MTT, drug exposure 48 h, mean ± SD (n = 3); read-out: Cytotoxic activity (IC50) HeLa
Description: (§1) Cytotoxicity of the podophyllum derivatives were determined by reading the absorbance at 492 nm on a multiplate reader (Thermo Fisher Scientific, Multiskan MK3). Cell cycle analysis and apoptosis analysis were analyzed by flow cytometry (Accuri C6, BD). Immunofluorescence images were recorded using laser scanning microscope (Perkin-Elmer & Olympus, UltraView VoX & Ix81). The gel for the decatenation of kDNA by Topoisomerase II study was photographed with UV illumination, Tanon 1600 (Tanon Science & Technology Co., Ltd., Shanghai). The nitrocellulose blotting membrane for western blot analysis was visualized using X-ray film processor and X-ray film, Fujifilm SUPER RX-N-C.
(§2) Cytotoxicity assay was performed on human lung adenocarcinoma epithelial cell line (A549), henrietta lacks strain of cancer cells (HeLa), human gastric carcinoma cell line (BGC 823), and normal human hepatocyte cell line (HL-7702). Cells (3500–13,000) in a 100 μL culture medium per well were seeded into 96-well microtest plates (Falcon, CA). A549 cell lines, HeLa cell lines and HL-7702 cell lines were cultured in DMEM supplemented with 10% CS, 100 mg/L penicillin G, 100 mg/L streptomycin. BGC 823 cell lines were cultured in RPMI medium 1640 supplemented with 10% CS, 100 mg/L penicillin G, and 100 mg/L streptomycin. The cells were incubated at 37 °C, in a humidified atmosphere with 5% CO2 for 48 h. For all cell lines, the microculture tetrazolium [3-(4, 5-dimethylthiazol-2-yl)-2, 5-diphenyltetrazolium bromide, MTT; Sigma, St. Louis, MO] assay was performed to measure the cytotoxic effects. Drug stock solutions (the each drug concentration was 0.5, 1, 10, 20, 50, 100, 200, and 500 μM, respectively) were prepared in DMSO and the final solvent concentration was ≤ 2% DMSO (v/v), a concentration without effect on cell replication. Initial seeding densities varied among the cell lines to ensure a final absorbance reading in control (untreated) cultures in the range 0.6–0.8 A492 units. Drug exposure was for 2 days, and the IC50 value, the drug concentration that reduced the absorbance by 50%, was interpolated from dose-response data. Each test was performed in triplicate, and absorbance readings varied no more than 5%. Data presented as means ± standard deviation (SD). Statistical analyses were performed by the analysis of variance (ANOVA). All statistical analyses were performed using Origin version 8.0 ([…], OriginLab Corp., Northampton, MA, USA). Sigmoidal dose responses and non-linear regression analyses were undertaken to identify half-maximal concentrations for each of the drugs. To evaluate differences in IC50 concentrations, analysis of variance combined with Tukey’s multiple range test was used.

[2] = system: BGC-823 cells; test: MTT cytotoxicity assay, BGC-823; assay type: cell-based, human; conditions: Homo sapiens, BGC-823; MTT, drug exposure 48 h, mean ± SD (n = 3); read-out: Cytotoxic activity (IC50) BGC-823
Description: as §1, §2

[3] = system: A549 cells; test: MTT cytotoxicity assay, A549; assay type: cell-based, human; conditions: MTT, drug exposure 48 h, mean ± SD (n = 3), read-out: Cytotoxic activity (IC50) A549
Description: as §1, §2

[4] = MTT cytotoxicity assay, normal hepatocyte HL-7702; assay type: cell-based; conditions: HL-7702 cells (normal hepatocyte cell line), normal human hepatocyte cell line, drug exposure 48 h, mean ± SD (n = 3), read-out: Cytotoxic activity (IC50) HL-7702
Description: as §1, §2

COc1cc([C@@H]2c3cc4c(cc3[C@@H](Sc3nc5ccccc5s3)[C@H]3COC(=O)[C@H]23)OCO4)cc(OC)c1OC [Compound 5S, 4β-S-(benzothiazole-2)-4-deoxy-podophyllotoxin]
IC50 [1]: 0.97 ± 0.12 µM
IC50 [2]: 1.04 ± 0.13 µM
IC50 ([3]; Homo sapiens, A549, 48 h): 11.1 ± 1.71 µM
IC50 at 48 h [4]: 31.8 ± 1.62 µM

COc1cc([C@@H]2c3cc4c(cc3[C@@H](Nc3nc5ccccc5s3)[C@H]3COC(=O)[C@H]23)OCO4)cc(OC)c1O [5′N, 4β-NH-(benzothiazole-2)-4-deoxy-4′-demethyl-podophyllotoxin]
IC50 [1]: 5.65 ± 0.11 µM
IC50 [2]: 10.5 ± 0.45 µM
IC50 ([3]; Homo sapiens, A549, 48 h): 14.2 ± 0.43 µM
IC50 at 48 h [4]: 18.6 ± 1.48 µM

COc1cc([C@@H]2c3cc4c(cc3[C@@H](Sc3ccccn3)[C@H]3COC(=O)[C@H]23)OCO4)cc(OC)c1OC [Compound 3S, 4β-S-(pyridine-2)-4-deoxy-podophyllotoxin]
IC50 [1]: 0.9 ± 0.03 µM
IC50 [2]: 1.09 ± 0.06 µM
IC50 ([3]; Homo sapiens, A549, 48 h): 19.1 ± 1.52 µM
IC50 at 48 h [4]: 89.7 ± 2.45 µM

COc1cc([C@@H]2c3cc4c(cc3[C@@H](Sc3ncnc5nc[nH]c35)[C@H]3COC(=O)[C@H]23)OCO4)cc(OC)c1O [6′S, 4β-S-(purine-6)-4-deoxy-4′-demethyl-podophyllotoxin]
IC50 [1]: 10.3 ± 0.41 µM
IC50 [2]: 45 ± 3.68 µM
IC50 ([3]; Homo sapiens, A549, 48 h): 7.45 ± 0.18 µM
IC50 at 48 h [4]: 27.5 ± 2.35 µM

COc1cc([C@@H]2c3cc4c(cc3[C@@H](Nc3nc5ccccc5s3)[C@H]3COC(=O)[C@H]23)OCO4)cc(OC)c1OC [Compound 5N]
IC50 [1]: 2.32 ± 0.28 µM
IC50 [2]: 13.2 ± 0.86 µM
IC50 ([3]; Homo sapiens, A549, 48 h): 15.2 ± 0.43 µM
IC50 at 48 h [4]: 5.33 ± 0.14 µM

COc1cc([C@@H]2c3cc4c(cc3[C@@H](Sc3nncs3)[C@H]3COC(=O)[C@H]23)OCO4)cc(OC)c1OC [Compound 2S]
IC50 [1]: 1.25 ± 0.36 µM
IC50 [2]: 0.31 ± 0.02 µM
IC50 ([3]; Homo sapiens, A549, 48 h): 1.26 ± 0.1 µM
IC50 at 48 h [4]: 36.2 ± 3.81 µM

COc1cc([C@@H]2c3cc4c(cc3[C@@H](Nc3ncccn3)[C@H]3COC(=O)[C@H]23)OCO4)cc(OC)c1OC [Compound 4N, 4β-NH-(pyrimidine-2)-4-deoxy-podophyllotoxin]
IC50 [1]: 26.4 ± 1.52 µM
IC50 [2]: 63.6 ± 3.77 µM
IC50 ([3]; Homo sapiens, A549, 48 h): 59.6 ± 3.48 µM
IC50 at 48 h [4]: 47.3 ± 2.71 µM

COc1cc([C@@H]2c3cc4c(cc3[C@@H](O[C@@H]3O[C@@H]5CO[C@@H](C)O[C@H]5[C@H](O)[C@H]3O)[C@H]3COC(=O)[C@H]23)OCO4)cc(OC)c1O [etoposide, reference compound]
IC50 [1]: 59.4 ± 2.45 µM
IC50 [2]: 20.5 ± 2.55 µM
IC50 [3]: 20.1 ± 1.95 µM
IC50 at 48 h [4]: 24.6 ± 3.82 µM

COc1cc([C@@H]2c3cc4c(cc3[C@@H](Nc3ncnc5nc[nH]c35)[C@H]3COC(=O)[C@H]23)OCO4)cc(OC)c1OC [Compound 6N]
IC50 [1]: 5.85 ± 0.36 µM
IC50 [2]: 12.5 ± 1.35 µM
IC50 ([3]; Homo sapiens, A549, 48 h): 3.72 ± 0.11 µM
IC50 at 48 h [4]: 13.6 ± 1.26 µM

COc1cc([C@@H]2c3cc4c(cc3[C@@H](Sc3ncnc5nc[nH]c35)[C@H]3COC(=O)[C@H]23)OCO4)cc(OC)c1OC [Compound 6S, 4β-S-(purine-6)-4-deoxy-podophyllotoxin]
IC50 [1]: 1.21 ± 0.13 µM
IC50 [2]: 11.3 ± 1.71 µM
IC50 ([3]; Homo sapiens, A549, 48 h): 0.57 ± 0.22 µM
IC50 at 48 h [4]: 20.6 ± 1.38 µM
